Test results taken from US8772480B2, “Inhibitors of PI3 kinase and/or mTOR” (priority 2009, dated 2014).

Tests used:
Assay type in all cases: biochemical
[1] = target: ProfilerPro Kinase Selectivity Assay Kit kinases (Homo sapiens, UniProt P36888); details: FLT3; 1 μM compound concentration
[2] = target: ProfilerPro Kinase Selectivity Assay Kit kinases (Homo sapiens, UniProt P35968); details: KDR; 1 μM compound concentration
[3] = target: ProfilerPro Kinase Selectivity Assay Kit kinases (Homo sapiens, UniProt P31751); details: AKT2; 1 μM compound concentration
[4] = target: ProfilerPro Kinase Selectivity Assay Kit kinases (Homo sapiens, UniProt P49137); details: MAPKAPK2; 1 μM compound concentration
[5] = target: ProfilerPro Kinase Selectivity Assay Kit kinases (Homo sapiens, UniProt P08069); details: IGF1R; 1 μM compound concentration
[6] = target: ProfilerPro Kinase Selectivity Assay Kit kinases (Homo sapiens, UniProt O14757); details: CHK1; 1 μM compound concentration
[7] = target: ProfilerPro Kinase Selectivity Assay Kit kinases (Homo sapiens, UniProt P17612); details: PKA alpha; 1 μM compound concentration
[8] = target: ProfilerPro Kinase Selectivity Assay Kit kinases (Homo sapiens, UniProt P07948); details: LYN; 1 μM compound concentration
[9] = target: ProfilerPro Kinase Selectivity Assay Kit kinases (Homo sapiens, UniProt Q15418); details: RSK1; 1 μM compound concentration
[10] = target: ProfilerPro Kinase Selectivity Assay Kit kinases (Homo sapiens, UniProt Q8IW41); details: PRAK; 1 μM compound concentration
[11] = target: ProfilerPro Kinase Selectivity Assay Kit kinases (Homo sapiens, UniProt P31749); details: AKT1; 1 μM compound concentration
[12] = target: ProfilerPro Kinase Selectivity Assay Kit kinases (Homo sapiens, UniProt Q9P1W9); details: PIM2; 1 μM compound concentration
[13] = target: ProfilerPro Kinase Selectivity Assay Kit kinases (Homo sapiens, UniProt Q9P0L2); details: MARK1; 1 μM compound concentration
[14] = target: ProfilerPro Kinase Selectivity Assay Kit kinases (Homo sapiens, UniProt Q06187); details: BTK; 1 μM compound concentration
[15] = target: ProfilerPro Kinase Selectivity Assay Kit kinases (Homo sapiens, UniProt Q16566); details: CAMK4; 1 μM compound concentration
[16] = target: ProfilerPro Kinase Selectivity Assay Kit kinases (Homo sapiens, UniProt Q13188); details: MST2; 1 μM compound concentration
[17] = target: ProfilerPro Kinase Selectivity Assay Kit kinases (Homo sapiens, UniProt O75116); details: ROCK2; 1 μM compound concentration
[18] = target: ProfilerPro Kinase Selectivity Assay Kit kinases (Homo sapiens, UniProt Q13177); details: PAK2; 1 μM compound concentration
[19] = target: ProfilerPro Kinase Selectivity Assay Kit kinases (Homo sapiens, UniProt P06239); details: LCK; 1 μM compound concentration
[20] = target: ProfilerPro Kinase Selectivity Assay Kit kinases (Homo sapiens, UniProt O14965); details: AURORA A; 1 μM compound concentration
[21] = target: ProfilerPro Kinase Selectivity Assay Kit kinases (Homo sapiens, UniProt Q05513); details: PKC zeta; 1 μM compound concentration
[22] = target: ProfilerPro Kinase Selectivity Assay Kit kinases (Homo sapiens, UniProt P12931); details: SRC; 1 μM compound concentration
[23] = target: ProfilerPro Kinase Selectivity Assay Kit kinases (Homo sapiens, UniProt P48730); details: CK1 delta; 1 μM compound concentration
[24] = target: ProfilerPro Kinase Selectivity Assay Kit kinases (Homo sapiens, UniProt P28482); details: ERK2; 1 μM compound concentration
[25] = target: ProfilerPro Kinase Selectivity Assay Kit kinases (Homo sapiens, UniProt P43405); details: SYK; 1 μM compound concentration
[26] = target: ProfilerPro Kinase Selectivity Assay Kit kinases (Homo sapiens, UniProt P24941); details: CDK2; 1 μM compound concentration
[27] = target: ProfilerPro Kinase Selectivity Assay Kit kinases (Homo sapiens, UniProt P06241); details: FYN; 1 μM compound concentration
[28] = target: ProfilerPro Kinase Selectivity Assay Kit kinases (Homo sapiens, UniProt O95819); details: HGK; 1 μM compound concentration
[29] = target: ProfilerPro Kinase Selectivity Assay Kit kinases (Homo sapiens, UniProt Q13627); details: DYRK1a; 1 μM compound concentration
[30] = target: ProfilerPro Kinase Selectivity Assay Kit kinases (Homo sapiens, UniProt P06213); details: INSR; 1 μM compound concentration
[31] = target: ProfilerPro Kinase Selectivity Assay Kit kinases (Homo sapiens, UniProt O96017); details: CHK2; 1 μM compound concentration

Chain of ProfilerPro Kinase Selectivity Assay Kit kinases (Homo sapiens, UniProt P28482) (P28482 2-360 limits assumed): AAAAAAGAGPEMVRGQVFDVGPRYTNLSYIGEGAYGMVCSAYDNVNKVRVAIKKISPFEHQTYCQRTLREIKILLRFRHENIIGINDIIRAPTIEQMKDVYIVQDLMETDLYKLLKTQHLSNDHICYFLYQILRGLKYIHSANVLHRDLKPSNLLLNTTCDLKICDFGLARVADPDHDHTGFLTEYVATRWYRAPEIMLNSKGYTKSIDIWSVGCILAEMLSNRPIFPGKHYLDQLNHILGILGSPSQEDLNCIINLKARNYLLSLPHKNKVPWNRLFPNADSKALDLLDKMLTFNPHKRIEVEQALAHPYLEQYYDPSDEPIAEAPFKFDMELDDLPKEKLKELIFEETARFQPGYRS
Chain of ProfilerPro Kinase Selectivity Assay Kit kinases (Homo sapiens, UniProt P12931) (P12931 2-536 limits assumed): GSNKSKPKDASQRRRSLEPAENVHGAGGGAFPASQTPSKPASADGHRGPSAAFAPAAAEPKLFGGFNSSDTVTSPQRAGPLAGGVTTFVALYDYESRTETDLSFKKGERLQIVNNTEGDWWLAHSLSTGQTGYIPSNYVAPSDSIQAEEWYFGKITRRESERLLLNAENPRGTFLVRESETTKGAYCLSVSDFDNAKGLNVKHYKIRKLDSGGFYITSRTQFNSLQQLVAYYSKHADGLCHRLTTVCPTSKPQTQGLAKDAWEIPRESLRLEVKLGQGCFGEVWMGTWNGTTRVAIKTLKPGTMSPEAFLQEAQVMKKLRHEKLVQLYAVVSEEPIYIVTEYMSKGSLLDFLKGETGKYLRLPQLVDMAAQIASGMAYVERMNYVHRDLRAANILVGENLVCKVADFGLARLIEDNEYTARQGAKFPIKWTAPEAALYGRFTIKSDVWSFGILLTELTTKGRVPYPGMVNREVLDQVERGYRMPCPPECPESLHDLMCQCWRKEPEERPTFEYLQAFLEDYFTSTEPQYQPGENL
Chain of ProfilerPro Kinase Selectivity Assay Kit kinases (Homo sapiens, UniProt Q06187) (Q06187 2-659 limits assumed): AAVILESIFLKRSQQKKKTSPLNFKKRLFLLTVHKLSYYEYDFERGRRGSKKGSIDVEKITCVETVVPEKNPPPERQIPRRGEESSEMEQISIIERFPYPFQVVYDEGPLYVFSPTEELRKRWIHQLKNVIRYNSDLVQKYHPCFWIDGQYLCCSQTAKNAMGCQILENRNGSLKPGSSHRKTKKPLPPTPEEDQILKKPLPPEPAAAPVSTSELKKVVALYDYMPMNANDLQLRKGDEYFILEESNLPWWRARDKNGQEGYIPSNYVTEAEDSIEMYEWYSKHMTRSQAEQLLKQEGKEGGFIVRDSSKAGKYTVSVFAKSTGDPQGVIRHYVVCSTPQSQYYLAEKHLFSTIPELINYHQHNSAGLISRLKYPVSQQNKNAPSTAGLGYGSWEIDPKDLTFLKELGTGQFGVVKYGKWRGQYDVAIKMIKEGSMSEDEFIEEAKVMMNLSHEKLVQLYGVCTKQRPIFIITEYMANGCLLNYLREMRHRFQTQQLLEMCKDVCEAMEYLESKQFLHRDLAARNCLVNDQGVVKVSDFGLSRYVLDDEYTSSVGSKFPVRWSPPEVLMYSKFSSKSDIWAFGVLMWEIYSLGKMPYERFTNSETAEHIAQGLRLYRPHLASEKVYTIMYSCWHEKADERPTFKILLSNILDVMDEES
Chain of ProfilerPro Kinase Selectivity Assay Kit kinases (Homo sapiens, UniProt P06239) (P06239 2-509 limits assumed): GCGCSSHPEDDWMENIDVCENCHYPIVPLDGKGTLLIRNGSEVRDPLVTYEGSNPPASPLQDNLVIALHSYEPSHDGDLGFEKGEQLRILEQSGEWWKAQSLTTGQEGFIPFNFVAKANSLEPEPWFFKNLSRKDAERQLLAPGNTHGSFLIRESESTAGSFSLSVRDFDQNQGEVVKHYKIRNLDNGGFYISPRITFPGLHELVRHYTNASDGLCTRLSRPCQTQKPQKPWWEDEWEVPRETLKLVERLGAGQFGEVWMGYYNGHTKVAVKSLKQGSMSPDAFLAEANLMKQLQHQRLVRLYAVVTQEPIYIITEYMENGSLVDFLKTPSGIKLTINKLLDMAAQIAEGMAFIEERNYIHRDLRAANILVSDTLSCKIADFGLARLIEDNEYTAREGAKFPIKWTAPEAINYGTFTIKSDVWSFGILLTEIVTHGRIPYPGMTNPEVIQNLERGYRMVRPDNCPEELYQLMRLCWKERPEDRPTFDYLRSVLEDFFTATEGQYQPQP
Chain of ProfilerPro Kinase Selectivity Assay Kit kinases (Homo sapiens, UniProt P06241) (P06241 2-537 limits assumed): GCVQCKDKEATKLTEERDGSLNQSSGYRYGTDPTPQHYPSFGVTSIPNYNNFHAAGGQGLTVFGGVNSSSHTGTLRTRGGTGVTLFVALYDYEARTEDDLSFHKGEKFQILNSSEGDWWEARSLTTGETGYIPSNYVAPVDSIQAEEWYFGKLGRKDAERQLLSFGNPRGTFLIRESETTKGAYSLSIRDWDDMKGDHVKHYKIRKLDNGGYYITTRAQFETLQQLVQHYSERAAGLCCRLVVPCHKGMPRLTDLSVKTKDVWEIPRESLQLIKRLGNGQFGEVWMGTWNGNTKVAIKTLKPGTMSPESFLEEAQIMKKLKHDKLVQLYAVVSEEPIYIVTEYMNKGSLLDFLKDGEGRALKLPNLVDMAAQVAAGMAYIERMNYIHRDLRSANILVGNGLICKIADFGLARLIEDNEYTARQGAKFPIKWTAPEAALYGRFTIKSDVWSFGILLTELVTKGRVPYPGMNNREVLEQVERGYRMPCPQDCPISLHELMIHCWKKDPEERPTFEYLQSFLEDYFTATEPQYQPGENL
Chain of ProfilerPro Kinase Selectivity Assay Kit kinases (Homo sapiens, UniProt P35968) (P35968 20-1356 limits assumed): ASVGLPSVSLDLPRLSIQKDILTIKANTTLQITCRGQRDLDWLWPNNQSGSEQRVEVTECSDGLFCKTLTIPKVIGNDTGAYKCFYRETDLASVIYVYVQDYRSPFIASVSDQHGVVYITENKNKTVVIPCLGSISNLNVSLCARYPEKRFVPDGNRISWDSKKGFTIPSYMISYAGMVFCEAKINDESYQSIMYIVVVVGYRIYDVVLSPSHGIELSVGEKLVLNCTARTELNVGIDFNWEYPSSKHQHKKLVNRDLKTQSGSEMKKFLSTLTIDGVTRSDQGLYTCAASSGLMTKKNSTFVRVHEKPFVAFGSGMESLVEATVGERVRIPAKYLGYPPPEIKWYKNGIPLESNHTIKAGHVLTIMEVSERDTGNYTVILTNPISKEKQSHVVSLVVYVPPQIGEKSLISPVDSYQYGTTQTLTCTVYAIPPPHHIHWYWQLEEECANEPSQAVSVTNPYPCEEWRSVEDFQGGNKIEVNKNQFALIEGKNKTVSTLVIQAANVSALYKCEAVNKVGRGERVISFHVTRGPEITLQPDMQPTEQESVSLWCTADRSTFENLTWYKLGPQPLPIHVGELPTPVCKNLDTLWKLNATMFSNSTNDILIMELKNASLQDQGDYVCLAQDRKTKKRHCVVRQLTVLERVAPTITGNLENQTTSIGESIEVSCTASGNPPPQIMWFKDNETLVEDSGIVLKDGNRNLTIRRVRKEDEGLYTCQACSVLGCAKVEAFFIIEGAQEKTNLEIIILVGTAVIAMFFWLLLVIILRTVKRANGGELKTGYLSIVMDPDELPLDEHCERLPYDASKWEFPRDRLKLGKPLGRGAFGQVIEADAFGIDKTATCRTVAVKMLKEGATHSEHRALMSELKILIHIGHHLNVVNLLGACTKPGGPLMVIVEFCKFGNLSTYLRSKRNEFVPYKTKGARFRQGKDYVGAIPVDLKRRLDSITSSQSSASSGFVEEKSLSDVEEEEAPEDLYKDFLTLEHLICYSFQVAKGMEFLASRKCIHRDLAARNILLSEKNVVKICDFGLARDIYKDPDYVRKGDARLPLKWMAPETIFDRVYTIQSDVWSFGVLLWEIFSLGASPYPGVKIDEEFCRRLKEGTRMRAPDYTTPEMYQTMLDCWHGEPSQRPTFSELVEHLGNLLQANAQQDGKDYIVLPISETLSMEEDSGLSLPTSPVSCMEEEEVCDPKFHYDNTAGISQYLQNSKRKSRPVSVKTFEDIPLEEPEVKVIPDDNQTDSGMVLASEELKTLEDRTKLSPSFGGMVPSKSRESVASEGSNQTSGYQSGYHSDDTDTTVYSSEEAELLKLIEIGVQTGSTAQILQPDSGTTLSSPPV
Chain of ProfilerPro Kinase Selectivity Assay Kit kinases (Homo sapiens, UniProt P36888) (P36888 27-993 limits assumed): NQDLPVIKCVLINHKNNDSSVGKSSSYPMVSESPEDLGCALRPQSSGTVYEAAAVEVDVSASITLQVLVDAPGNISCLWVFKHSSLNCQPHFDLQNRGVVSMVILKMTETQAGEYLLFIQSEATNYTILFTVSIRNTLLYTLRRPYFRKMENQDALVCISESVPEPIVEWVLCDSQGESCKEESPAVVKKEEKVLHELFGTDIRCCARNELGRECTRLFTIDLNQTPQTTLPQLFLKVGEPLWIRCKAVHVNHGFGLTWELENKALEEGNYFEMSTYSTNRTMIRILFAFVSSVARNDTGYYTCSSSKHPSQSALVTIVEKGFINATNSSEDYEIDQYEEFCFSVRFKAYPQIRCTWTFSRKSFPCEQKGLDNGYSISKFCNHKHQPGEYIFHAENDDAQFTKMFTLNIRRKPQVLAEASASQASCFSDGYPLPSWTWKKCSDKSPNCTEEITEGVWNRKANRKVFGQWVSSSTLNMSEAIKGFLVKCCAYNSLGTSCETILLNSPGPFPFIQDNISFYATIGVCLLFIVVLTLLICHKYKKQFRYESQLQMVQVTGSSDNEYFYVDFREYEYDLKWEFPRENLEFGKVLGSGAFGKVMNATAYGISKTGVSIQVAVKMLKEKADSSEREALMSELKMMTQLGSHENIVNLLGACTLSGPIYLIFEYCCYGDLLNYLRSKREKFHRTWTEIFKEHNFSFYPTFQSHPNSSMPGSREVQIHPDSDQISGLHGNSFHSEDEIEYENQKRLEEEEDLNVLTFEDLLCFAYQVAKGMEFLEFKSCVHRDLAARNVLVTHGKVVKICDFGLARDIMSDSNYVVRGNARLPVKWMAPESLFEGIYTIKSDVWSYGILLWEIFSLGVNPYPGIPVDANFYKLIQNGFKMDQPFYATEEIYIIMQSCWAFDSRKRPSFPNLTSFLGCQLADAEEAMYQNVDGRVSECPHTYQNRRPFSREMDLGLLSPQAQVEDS

Row | POC (Percent of control) FLT3 [1] | POC (Percent of control) KDR [2] | POC (Percent of control) AKT2 [3] | POC (Percent of control) MAPKAPK2 [4] | POC (Percent of control) IGF1R [5] | POC (Percent of control) CHK1 [6] | POC (Percent of control) PKA alpha [7] | POC (Percent of control) LYN [8] | POC (Percent of control) RSK1 [9] | POC (Percent of control) PRAK [10] | POC (Percent of control) AKT1 [11] | POC (Percent of control) PIM2 [12] | POC (Percent of control) MARK1 [13] | POC (Percent of control) BTK [14] | POC (Percent of control) CAMK4 [15] | POC (Percent of control) MST2 [16] | POC (Percent of control) ROCK2 [17] | POC (Percent of control) PAK2 [18] | POC (Percent of control) LCK [19] | POC (Percent of control) AURORA A [20] | SMILES | also measured
1 | 92 POC | 90 POC | 98 POC | 99 POC | 77 POC | 106 POC | 100 POC | 95 POC | 97 POC | 100 POC | 102 POC | 94 POC | 99 POC | 98 POC | 93 POC | 95 POC | 95 POC | 95 POC | 96 POC | 99 POC | Cc1nc(-c2cccnc2Nc2cccc3[nH]ncc23)c2nc[nH]c2n1 [Example 57, N-(3-(2-methyl-9H-purin-6-yl)pyridin-2-yl)-1H-indazol-4-amine] | POC (Percent of control) PKC zeta [21]: 100 POC; POC (Percent of control) SRC [22]: 93 POC; POC (Percent of control) CK1 delta [23]: 55 POC; POC (Percent of control) ERK2 [24]: 97 POC; POC (Percent of control) SYK [25]: 100 POC; POC (Percent of control) CDK2 [26]: 95 POC; POC (Percent of control) FYN [27]: 103 POC; POC (Percent of control) HGK [28]: 93 POC; POC (Percent of control) DYRK1a [29]: 91 POC; POC (Percent of control) INSR [30]: 94 POC; POC (Percent of control) CHK2 [31]: 98 POC
2 | 105 POC | 106 POC | 97 POC | 98 POC | 97 POC | 103 POC | 97 POC | 108 POC | 100 POC | 106 POC | 102 POC | 97 POC | 109 POC | 99 POC | 95 POC | 98 POC | 94 POC | 99 POC | 97 POC | 102 POC | Cc1nc(N)nc(-c2cccnc2Nc2cccc3[nH]ccc23)n1 [Example 22, N-(3-(4-Amino-6-Methyl-1,3,5-Triazin-2-yl)Pyridin-2-yl)-1H-Indol-4-Amine] | POC (Percent of control) PKC zeta [21]: 98 POC; POC (Percent of control) SRC [22]: 101 POC; POC (Percent of control) CK1 delta [23]: 91 POC; POC (Percent of control) ERK2 [24]: 103 POC; POC (Percent of control) SYK [25]: 96 POC; POC (Percent of control) CDK2 [26]: 107 POC; POC (Percent of control) FYN [27]: 103 POC; POC (Percent of control) HGK [28]: 97 POC; POC (Percent of control) DYRK1a [29]: 96 POC; POC (Percent of control) INSR [30]: 96 POC; POC (Percent of control) CHK2 [31]: 102 POC
3 | 106 POC | 105 POC | 112 POC | 99 POC | 101 POC | 105 POC | 99 POC | 101 POC | 103 POC | 97 POC | 103 POC | 99 POC | 97 POC | 100 POC | 98 POC | 101 POC | 101 POC | 96 POC | 97 POC | 112 POC | Cc1nc(N)nc(-c2cccnc2Nc2cccc(O)c2)n1 [Example 23, 3-(3-(4-Amino-6-Methyl-1,3,5-Triazin-2-yl)Pyridin-2-Ylamino)Phenol] | POC (Percent of control) PKC zeta [21]: 102 POC; POC (Percent of control) SRC [22]: 99 POC; POC (Percent of control) CK1 delta [23]: 70 POC; POC (Percent of control) ERK2 [24]: 103 POC; POC (Percent of control) SYK [25]: 110 POC; POC (Percent of control) CDK2 [26]: 106 POC; POC (Percent of control) FYN [27]: 96 POC; POC (Percent of control) HGK [28]: 99 POC; POC (Percent of control) DYRK1a [29]: 93 POC; POC (Percent of control) INSR [30]: 98 POC; POC (Percent of control) CHK2 [31]: 101 POC
4 | 99 POC | 102 POC | 105 POC | 103 POC | 80 POC | 96 POC | 100 POC | 100 POC | 103 POC | 112 POC | 102 POC | 99 POC | 98 POC | 97 POC | 94 POC | 98 POC | 98 POC | 105 POC | 102 POC | 100 POC | Cc1nc(N)nc(-c2cc(CN3CCN(S(C)(=O)=O)CC3)cnc2Nc2cccc(O)c2)n1 [Example 30, 3-(3-(4-Amino-6-Methyl-1,3,5-Triazin-2-yl)-5-((4-(Methyl Sulfonyl)Piperazin-1-yl)Methyl)Pyridin-2-Ylamino)Phenol] | POC (Percent of control) PKC zeta [21]: 110 POC; POC (Percent of control) SRC [22]: 103 POC; POC (Percent of control) CK1 delta [23]: 95 POC; POC (Percent of control) ERK2 [24]: 102 POC; POC (Percent of control) SYK [25]: 106 POC; POC (Percent of control) CDK2 [26]: 101 POC; POC (Percent of control) FYN [27]: 97 POC; POC (Percent of control) HGK [28]: 96 POC; POC (Percent of control) DYRK1a [29]: 93 POC; POC (Percent of control) INSR [30]: 102 POC; POC (Percent of control) CHK2 [31]: 106 POC
